# Experimental data: patent US9107948B2, “Compounds for diagnosing diseases associated with the expression of MUC5AC” (Guerbet, priority 2010, dated 2015)
# Values joined by “and” are separate entries in the source; they are usually repeats but may differ in a detail not shown here. Equal entries are not always repeated. Positions of bridges follow the written chain, without caps; N, C: chain ends. Residues, ends and D or L forms follow the SMILES beside them. No end group written: not given here.
# Key:
# [1] = molecular target: mouse MUC5AC glycoprotein; assay: ELISA on MUC5AC purified from mouse stomach; assay type: binding; conditions: ELISA (FIG. 2), read-out: apparent dissociation constant K*d
# Description: (§1) The interaction between the peptide and MUC5AC is evaluated by means of an ELISA assay. The mucin MUC5AC (purified from pieces of human tumor on the basis of mucin extraction and purification protocols described in literature) is immobilized on a plate at the concentration of 12.5 μg/ml overnight at 4° C. The nonspecific sites are then saturated in a buffer enriched with milk, for 2 hours at 4° C. After several rinses, the peptide CPSIYPLLC (SEQ ID No: 2) coupled to biotin is incubated at increasing concentrations (10^−3M and 10^−6M) for 2 hours at 37° C. The biotinylated peptides bound to MUC5AC are visualized using goat anti-biotin antibodies incubated for one hour at ambient temperature and then diluted in PBS at 1 μg/ml. After removal of the unbound antibodies, a second incubation for one hour at ambient temperature is carried out in the presence of peroxidase-labeled anti-goat antibodies at 0.2 μg/ml, diluted in PBS supplemented with 0.1% of Tween-20. The peroxidase coloration reaction is carried out in the presence of H2O2-enriched ABTS. The measurement of the OD at 405 nm makes it possible to calculate the K*d MUC5AC value. The interaction between the peptide and MUC5AC is also evaluated by means of the previously described ELISA assay on the mucin MUC5AC purified beforehand from mouse and rat stomach.
# rat MUC5AC glycoprotein = assay: ELISA on MUC5AC purified from rat stomach; assay type: binding; conditions: ELISA (FIG. 2), read-out: apparent dissociation constant K*d
# Description: as §1
# MUC5AC = molecular target: T1, MUC5AC (Homo sapiens, UniProt P98088); assay: Labeling of tissue sections with biotinylated peptide (specificity); conditions: FIG. 4
# T1 construct: Sections of healthy gastric and colonic mucosae and of human colorectal adenoma; from tissue; host or cells: paraffin sections of human gastric epithelium and colorectal adenoma
# Description: (§2) Sections of healthy gastric and colonic mucosae and of human colorectal adenoma (5 μm thick) were fixed for 24 h with 4% paraformaldehyde and embedded in paraffin. For the labeling, the sections were first of all deparaffinized in toluene and rehydrated in 95% alcohol. After rinsing in water, the slides are brought to boiling for 10 minutes in a citrate buffer (50 mM, pH 4). Once the temperature of the buffer has returned to 25-30° C., the slides are then rinsed with PBS and then successively incubated for 15 minutes in a 0.15% hydrogen peroxide (H2O2) solution and a kit for blocking the endogenous biotin for 1 h. The sections are then blocked using a milk-enriched buffer for 1 h at ambient temperature, and are then incubated at 4° C. for 18 h with the peptides at various concentrations (20 μM, 10 μM, 1 μM, 0.2 μM, 0.04 μM) or the antibodies (MUC5AC: PM8 at a 1/100 dilution and MUC2: Lum2-3 at a 1/100 dilution) diluted in PBS. The biotinylated peptides bound to the target are visualized using goat anti-biotin antibodies incubated for one hour at ambient temperature and then diluted in PBS at 1 μg/ml. A second incubation for one hour at ambient temperature is carried out in the presence of peroxidase-labeled anti-goat antibodies at 0.2 μg/ml diluted in PBS supplemented with 0.1% of Tween-20. […]
# MUC2 glycoprotein = molecular target: T2, MUC2 glycoprotein (Homo sapiens, UniProt Q02817); assay: Labeling of colonic adenoma sections, recognition of MUC2; conditions: FIG. 4
# T2 construct: Sections of healthy gastric and colonic mucosae and of human colorectal adenoma; from tissue; host or cells: paraffin sections of human colonic adenoma
# Description: as §2
# [2] = Plasma kinetics: iron concentration by relaxometry in plasma of imaged mice; assay type: in vivo; conditions: 1 h-1 h 30 after injection
# Description: IV.2 Plasma Kinetics: Calculation of the Concentration of USPIO Contained in the Plasma of the Imaged Mice
# It can be observed in table 3 that the iron concentrations are proportional to the dose of product injected.
# [3] = tested on: HT29-5M21 cells (MUC5AC cells); assay: USPIO binding test on colonic cell model, iron assay by relaxometry; assay type: cell-based, human; conditions: increasing concentrations 1/2/4/8 mM iron, 1 H at 37° C.
# Description: (§3) After 21 days of culture for HT29-5M21 cells (MUC5AC cells), the literature reports that MUC5AC is massively expressed. […] The cells are rinsed with PBS at 4° C. and then directly brought into contact with 0.5 ml of USPIO diluted in PBS, for 1 H at 37° C. (incubator, 5% CO2). The USPIOs are tested at various iron concentrations of 1/2/4/8 mM on each of the lines. After the supernatant has been drawn off, the cells are washed twice with PBS and then scraped so as to subsequently be taken up with 250 μl of PBS (twice). The suspensions are subsequently freeze-dried and then taken up with 100 μl of a 5N HCl solution for 4 H at 80° C. in a water bath. The assay is then carried out using Paris reagent, before carrying out the relaxometry (Bruiser Minispec 60 MHz). The secretion of MUC5AC by the HT29 model and the absence of secretion with HCT116 were verified in the study.
# [4] = Particle size (PCS) and magnetic characterization; assay type: physicochemical
# Description: Determined by PCS (Malvern 4700 instrument, laser 488 nm at 90°) on a sample diluted to ˜1 millimolar with water for injection filtered through 0.22 μm.
# [5] = tested on: mucin MUC5AC in the stomach; assay: Molecular MRI (RARE, 7T) of the stomach of tumor-bearing mice; assay type: in vivo; conditions: mice bearing MUC5AC-positive or -negative tumor
# Description: (§4) The selected imaging parameters are the following: • RARE (rapid acquisition with relaxation enhancement) sequence (7T) • TR/TEeff=3000/48.7 ms, • RARE factor=4, • NEX=4, • Matrix=256×256 • FOV=2.3 cm • slice thickness=1 mm • 20 axial slices • spatial resolution=90 μm • acquisition time=12 min 48 s Mice: • bearing an MUC5AC-positive tumor were injected with PEG750-C60c (100 μmol/kg), • bearing an MUC5AC-positive tumor were injected with the control compound (100 μmol/kg) and • bearing an MUC5AC-negative tumor were injected with PEG750-C60c (100 μmol/kg).
# MUC5AC. […] Indeed, using PEG750-C60c at equal concentration in animals having tumors with an opposite MUC5AC expression profile, but having the same mucin secretion characteristic in the stomach, a differential response was clearly observed in the tumor, but not in the stomach.
# Relaxivity measurements = assay type: physicochemical; conditions: 37° C.
# Description: […] The longitudinal relaxation time T1 is measured using an inversion recovery sequence and the transverse relaxation time T2 is measured using a CPMG technique.
# The relaxation rates R1 (=1/T1) and R2 (=1/T2) were calculated for various concentrations of total metal (ranging from 0.1×10^−3 to 1×10^−3 mol/l) in aqueous solution at 37° C. The correlation between R1 or R2 as a function of the concentration is linear, and the slope represents the relaxivity r1 (R1/C) or r2 (R2/C) expressed as (1/second)×(1/mmol/l), i.e. (mM^−1·s^−1).
# [6] = tested on: HCT116 cells (control cells, MUC5AC-negative); assay: USPIO binding test on colonic control cells, iron assay by relaxometry; assay type: cell-based, human; conditions: control cells HCT116, 1/2/4/8 mM iron, 1 H at 37° C.
# Description: as §3
# [7] = tested on: MUC5AC-negative tumor (HCT116 xenograft); assay: Molecular MRI (RARE, 7T) of tumor in mice bearing MUC5AC-negative tumor; assay type: in vivo
# Description: as §4
# [8] = tested on: MUC5AC-positive tumor (HT29 5M21 xenograft); assay: Molecular MRI (RARE, 7T) of tumor in mice bearing MUC5AC-positive tumor; assay type: in vivo
# Description: as §4
# mouse gastric tissue = assay: Detection of USPIOs on mouse stomach sections after in vivo injection (anti-PEG antibody); conditions: section of mouse stomach
# Description: (§5) In the experiments carried out, the PEG750-C60C was detected using the anti-PEG antibody on HT295M21 xenograft, on HCT116 xenograft and on a section of mouse stomach without counterstaining. The control compound was detected on a section of mouse stomach without counterstaining. The sections were visualized in parallel with an anti-MUC5AC antibody on HT295M21 and HCT116.
# [9] = tested on: HT295M21 and HCT116 xenografts; assay: Detection of USPIOs on tumor xenograft tissue after in vivo injection (anti-PEG antibody); parameters: species or system mice
# Description: as §5
molecule,measurement,setting,value
"CC[C@H](C)[C@@H]1NC(=O)[C@H](CO)NC(=O)[C@@H]2CCCN2C(=O)[C@@H](N)CSSC[C@@H](C(N)=O)NC(=O)[C@H](CC(C)C)NC(=O)[C@H](CC(C)C)NC(=O)[C@@H]2CCCN2C(=O)[C@H](Cc2ccc(O)cc2)NC1=O [peptide CPSIYPLLC, Cys-Pro-Ser-He-Tyr-Pro-Leu-Leu-Cys] (H-CPSIYPLLC-NH2; disulfide 1-9; N-terminus and C-terminus assumed)",Kd,[1],549 µM
same,Kd,rat MUC5AC glycoprotein,659 µM
same,labeling of sections of healthy human gastric epithelia,MUC5AC,demonstrate the specificity
same,recognition of the MUC2 glycoprotein on sections of colonic adenoma,MUC2 glycoprotein,absence of recognition
"PEG750-C60c (CPSIYPLLC; not fully specified; cysteine pairing not given here; also: PEG750 attached, site not given here, coupled to iron particle)",Iron concentration in the plasma,"[2]; MUC5AC-negative mice, 20 μmol Fe/kg",471.5 µmol/L
same,Iron concentration in the plasma,"[2]; MUC5AC-negative mice, 20 μmol Fe/kg, listed as PEG750-C60C",442.5 µmol/L and 350.7 µmol/L and 337 µmol/L
same,Iron concentration in the plasma,"[2]; MUC5AC-negative mice, 100 μmol Fe/kg",2806 µmol/L and 3638 µmol/L
same,Iron concentration in the plasma,"[2]; MUC5AC-positive mice, 20 μmol Fe/kg",486.8 µmol/L and 380 µmol/L
same,Iron concentration in the plasma,"[2]; MUC5AC-positive mice, 20 μmol Fe/kg, listed as PEG750-C60C",312.4 µmol/L
same,Iron concentration in the plasma,"[2]; MUC5AC-positive mice, 40 μmol Fe/kg",909.6 µmol/L
same,Iron concentration in the plasma,"[2]; MUC5AC-positive mice, 100 μmol Fe/kg",1555.5 µmol/L
same,Iron concentration in the plasma,"[2]; MUC5AC-positive mice, 100 μmol Fe/kg, listed as PEG750-C60C",2590 µmol/L and 3871 µmol/L and 1959 µmol/L
same,iron concentration on the cells,[3],significantly increases
same,Magnetic diameter,[4],7.2 nm
same,Magnetization at saturation (magn.),[4],70 Am^2/Kg
same,hydrodynamic diameter Z ave (PCS),[4],28 nm
same,MRI image of the gastric region in contact with the lumen,[5],clear darkening
same,relaxivity r1,Relaxivity measurements; 20 MHz,30.54 s⁻¹ mM⁻¹
same,relaxivity r1,Relaxivity measurements; 60 MHz,14.94 s⁻¹ mM⁻¹
same,iron concentration on the cells,[6],does not change proportionally
same,MRI image contrast of the tumor,[7]; 100 μmol/kg,no variation in contrast
same,change of signal in the tumor,[7]; same conditions (20 and 100 μmol of iron/kg),no change or a slight increase
same,signal variation in the tumor (ΔSI),"[8]; 20 μmol of iron/kg, post-contrast",−10%
same,signal variation in the tumor (ΔSI),[8]; 100 μmol of iron/kg,−15%
same,MRI image contrast of the tumor,[8]; 100 μmol/kg,negative contrast image
same,labeling / accumulation in the mouse gastric tissue,mouse gastric tissue,specific labeling
same,accumulation in the tumors,[9],only when they secrete MUC5AC
